Test results: ChEMBL document CHEMBL1201862, “PubChem BioAssay data set” (2004)
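48-hour exposure; five concentrations; linearly interpolated endpoints. GI50 marks 50% less growth.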 The source made the active and inactive calls. No stated cut-off is given here; in the data, active = GI50 up to about 1.1 µM and inactive = higher.

How the values were obtained:
Assay in all cases: NCI-60 cell line screen, 48 h
HT-29 = test system: HT-29
HL-60 = test system: HL-60
EKVX = test system: EKVX
RXF 393 = test system: RXF 393
UACC-257 = test system: UACC-257
MDA-MB-435 = test system: MDA-MB-435
HOP-62 = test system: HOP-62
SF-295 = test system: SF-295
MOLT-4 = test system: MOLT-4
IGROV-1 = test system: IGROV-1
SK-MEL-28 = test system: SK-MEL-28
SNB-19 = test system: SNB-19
A498 = test system: A498
HCC 2998 = test system: HCC 2998
RPMI-8226 = test system: RPMI-8226
LOX IMVI = test system: LOX IMVI
MCF7 = test system: MCF7
HCT-116 = test system: HCT-116
SF-268 = test system: SF-268
Malme-3M = test system: Malme-3M

Compound | GI50 (HT-29) | GI50 (HL-60) | GI50 (EKVX) | GI50 (RXF 393) | GI50 (UACC-257) | GI50 (MDA-MB-435) | GI50 (HOP-62) | GI50 (SF-295) | GI50 (MOLT-4) | GI50 (IGROV-1) | GI50 (SK-MEL-28) | GI50 (SNB-19) | GI50 (A498) | GI50 (HCC 2998) | GI50 (RPMI-8226) | GI50 (LOX IMVI) | GI50 (MCF7) | GI50 (HCT-116) | GI50 (SF-268) | GI50 (Malme-3M)
COc1ccc2c(c1)CC[C@@H]1[C@@H]2CC[C@]2(C)C(=O)/C(=C/c3ccc(O)c(OC)c3)C[C@@H]12 | 51.8 µM (inactive) | 47.8 µM (inactive) | 45.8 µM (inactive) | 41.5 µM (inactive) | 57.8 µM (inactive) | 32 µM (inactive) | 62.7 µM (inactive) | 55.6 µM (inactive) | 28.2 µM (inactive) | 63.8 µM (inactive) | 52.1 µM (inactive) | > 100 µM (inactive) | > 100 µM (inactive) | 31.6 µM (inactive) | 34.7 µM (inactive) | 36.9 µM (inactive) | 60.4 µM (inactive) |  |  | 
Cc1ccccc1CN1CC2=C(CCN(Cc3ccccc3)C2=O)N2CCN=C12 | 5.31 µM (inactive) | 3.78 µM (inactive) | 6.32 µM (inactive) | 54 µM (inactive) | 3.5 µM (inactive) | 4.74 µM (inactive) | 9.16 µM (inactive) | 3.21 µM (inactive) | 9.66 µM (inactive) | > 100 µM (inactive) | 29.2 µM (inactive) | 6.79 µM (inactive) | 13.1 µM (inactive) | 4.06 µM (inactive) | 1.55 µM (inactive) | 3.49 µM (inactive) | 4.86 µM (inactive) | 4.06 µM (inactive) | 6.87 µM (inactive) | 
[O-]/[N+](=N/c1ncc(-c2ccccc2)cn1)c1ncc(-c2ccccc2)cn1 | > 78 µM (inactive) | 39.1 µM (inactive) | 63.5 µM (inactive) | 60.5 µM (inactive) | > 100 µM (inactive) | 40.5 µM (inactive) | > 100 µM (inactive) | 73.5 µM (inactive) | > 64.6 µM (inactive) | 29.9 µM (inactive) | > 61.9 µM (inactive) | > 58.3 µM (inactive) | > 100 µM (inactive) | > 100 µM (inactive) | > 64.6 µM (inactive) | 43.4 µM (inactive) | 36 µM (inactive) | 31.6 µM (inactive) | > 84.7 µM (inactive) | 32.2 µM (inactive)
CC1=C(C#N)c2nc3ccccc3n2C(=O)C1(C)CCO (stereo not drawn) | > 100 µM (inactive) | > 100 µM (inactive) | > 100 µM (inactive) | > 100 µM (inactive) | > 100 µM (inactive) | > 100 µM (inactive) | > 100 µM (inactive) | > 100 µM (inactive) |  | > 100 µM (inactive) | > 100 µM (inactive) | > 100 µM (inactive) | > 100 µM (inactive) | > 100 µM (inactive) |  | > 100 µM (inactive) | > 100 µM (inactive) | > 100 µM (inactive) | > 100 µM (inactive) | > 100 µM (inactive)
CCCCC1=NNC(=O)C1 | > 100 µM (inactive) | > 100 µM (inactive) | > 100 µM (inactive) | > 100 µM (inactive) | > 100 µM (inactive) | > 100 µM (inactive) | > 100 µM (inactive) | > 100 µM (inactive) | > 100 µM (inactive) | > 100 µM (inactive) | > 100 µM (inactive) |  | > 100 µM (inactive) | > 100 µM (inactive) | > 100 µM (inactive) |  | > 100 µM (inactive) | > 100 µM (inactive) |  | > 100 µM (inactive)
CC1C=CN(N(C)C)C2=C1C(=O)c1cnccc1C2=O (stereo not drawn) | 0.617 µM (active) | 1.47 µM (inactive) | 0.59 µM (active) | 0.408 µM (active) | 0.212 µM (active) | 0.186 µM (active) | 0.349 µM (active) | 0.676 µM (active) | 1.76 µM (inactive) | 0.244 µM (active) | 0.453 µM (active) | 0.832 µM (active) | 1.29 µM (inactive) | 0.589 µM (active) | 0.531 µM (active) | 0.129 µM (active) | 0.274 µM (active) | 0.306 µM (active) | 0.975 µM (active) | 0.334 µM (active)
CNC(=O)N(CCC#N)CCN(C(=O)NC)c1ccccc1 | > 100 µM (inactive) |  | > 100 µM (inactive) | > 100 µM (inactive) | > 100 µM (inactive) | > 100 µM (inactive) | > 100 µM (inactive) | > 100 µM (inactive) | > 100 µM (inactive) | > 100 µM (inactive) | > 100 µM (inactive) | > 100 µM (inactive) | > 100 µM (inactive) | > 100 µM (inactive) | > 100 µM (inactive) | > 100 µM (inactive) | > 100 µM (inactive) | > 100 µM (inactive) | > 100 µM (inactive) | > 73.8 µM (inactive)
CC(CC(C)[C@H]1CCC2[C@H]3C(CC[C@@]21C)[C@@]1(C)CCC(O)C[C@H]1C[C@@H]3O)C(=O)O (stereo partly drawn) | > 100 µM (inactive) | > 100 µM (inactive) | > 100 µM (inactive) | > 100 µM (inactive) | > 100 µM (inactive) | > 100 µM (inactive) | > 100 µM (inactive) |  | > 100 µM (inactive) | > 100 µM (inactive) | > 100 µM (inactive) | > 100 µM (inactive) | > 100 µM (inactive) | > 100 µM (inactive) | > 100 µM (inactive) | > 100 µM (inactive) | > 100 µM (inactive) | > 100 µM (inactive) | > 100 µM (inactive) | > 100 µM (inactive)
CN1CCCOC(c2ccc([N+](=O)[O-])cc2)O1 (stereo not drawn) | > 100 µM (inactive) |  | > 100 µM (inactive) | > 100 µM (inactive) | > 100 µM (inactive) | > 100 µM (inactive) | > 100 µM (inactive) | > 100 µM (inactive) | > 100 µM (inactive) | > 100 µM (inactive) | > 100 µM (inactive) | > 100 µM (inactive) | > 100 µM (inactive) | > 100 µM (inactive) |  | > 100 µM (inactive) | > 100 µM (inactive) | > 100 µM (inactive) | > 100 µM (inactive) | > 100 µM (inactive)
CS/C1=C(\c2ccc(C)cc2)N(c2ccccc2)C(=O)C(=O)N(c2ccccc2)/C(c2ccc(C)cc2)=C(/SC)SS1 | > 100 µM (inactive) | > 100 µM (inactive) | > 100 µM (inactive) |  | > 100 µM (inactive) | > 100 µM (inactive) | > 100 µM (inactive) | > 100 µM (inactive) | > 100 µM (inactive) | > 100 µM (inactive) | > 100 µM (inactive) | > 100 µM (inactive) | 50.5 µM (inactive) | > 100 µM (inactive) | > 100 µM (inactive) | > 100 µM (inactive) | > 100 µM (inactive) | > 100 µM (inactive) | > 100 µM (inactive) | > 100 µM (inactive)
CSc1c(C#N)c(=O)n(N)c2[nH]nc(C)c12 | > 100 µM (inactive) | > 100 µM (inactive) | > 100 µM (inactive) | > 100 µM (inactive) | > 100 µM (inactive) | > 100 µM (inactive) |  |  | > 100 µM (inactive) |  | > 100 µM (inactive) | > 100 µM (inactive) | 91.6 µM (inactive) | > 100 µM (inactive) | > 100 µM (inactive) | > 100 µM (inactive) | > 100 µM (inactive) | > 100 µM (inactive) | > 100 µM (inactive) | > 100 µM (inactive)
CSc1nncc2[nH]c(C)nc12 | > 100 µM (inactive) | > 100 µM (inactive) | > 100 µM (inactive) |  | > 100 µM (inactive) | > 100 µM (inactive) | > 100 µM (inactive) | > 100 µM (inactive) | > 100 µM (inactive) | > 100 µM (inactive) | > 100 µM (inactive) |  | > 100 µM (inactive) | > 100 µM (inactive) | > 100 µM (inactive) | > 100 µM (inactive) | > 100 µM (inactive) | > 100 µM (inactive) |  | > 100 µM (inactive)
COC(=O)C1CC2CC1C1C2SC(F)(F)C1(F)F (stereo not drawn) |  |  | > 100 µM (inactive) | > 100 µM (inactive) | > 100 µM (inactive) | > 100 µM (inactive) | > 100 µM (inactive) | > 100 µM (inactive) | > 100 µM (inactive) | > 100 µM (inactive) | > 100 µM (inactive) | > 100 µM (inactive) | > 100 µM (inactive) | > 100 µM (inactive) | > 100 µM (inactive) | > 100 µM (inactive) | > 100 µM (inactive) | > 100 µM (inactive) | > 100 µM (inactive) | > 100 µM (inactive)
CCc1nc(N)c2nc(-c3ccc(C#N)cc3)oc2n1 | > 100 µM (inactive) | > 10 µM (inactive) | > 100 µM (inactive) | > 100 µM (inactive) | > 100 µM (inactive) | > 100 µM (inactive) | > 100 µM (inactive) | > 100 µM (inactive) | > 100 µM (inactive) | > 100 µM (inactive) | > 100 µM (inactive) | > 100 µM (inactive) | > 100 µM (inactive) | > 100 µM (inactive) | > 100 µM (inactive) | > 100 µM (inactive) | > 100 µM (inactive) | > 100 µM (inactive) | > 100 µM (inactive) | 
C=CCN1C(=O)/C(=C/c2ccco2)N=C1SC1OC(COC(C)=O)C(OC(C)=O)C(OC(C)=O)C1OC(C)=O (stereo not drawn) |  | 13.2 µM (inactive) | > 100 µM (inactive) | 44 µM (inactive) | > 100 µM (inactive) | > 100 µM (inactive) | > 100 µM (inactive) | > 100 µM (inactive) | 32.7 µM (inactive) | > 100 µM (inactive) | > 100 µM (inactive) |  | > 100 µM (inactive) | > 100 µM (inactive) | 31.6 µM (inactive) | > 100 µM (inactive) | 62.5 µM (inactive) |  |  | 89.5 µM (inactive)
